Common to all, as to assay: NCI-60 cell line screen, 48 h
Assay [1] has as its system SNB-75 CNS.
The test system of assay [2] is M14 melanoma.
Assay [3] relates to IGROV1 ovarian.
For assay [4], the system named is DU-145 prostate.
Assay [5] has as its system T-47D breast.
Assay [6] deals with NCI-H522 lung.
For assay [7], the system named is PC-3 prostate.
Assay [8] relates to SK-MEL-5 melanoma.
Assay [9] has as its system UACC-257 melanoma.
In assay [10] the test system is A549 NSCLC.
The test system of assay [11] is A498 renal.
The subject of assay [12] is MALME-3M melanoma.
In assay [13] the test system is MDA-N.
In assay [14] the test system is K-562 leukemia.
Assay [15] concerns SW-620 colon.
Assay [16] concerns HCT-15 colon.
Assay [17] deals with UO-31 renal.
Assay [18] has as its system SK-OV-3 ovarian.
Assay [19] has as its system OVCAR-4 ovarian.
For assay [20], the system named is BT-549 breast.

Among the data in PubChem BioAssay (NCI) are TGI values, retold here.

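These data come from cells grown in 96-well plates and exposed to compound for 48 hours at five concentrations. The concentration for full growth arrest is given as TGI.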

Take `c1ccc([P+](Cc2ccc(C[P+](c3ccccc3)(c3ccccc3)c3ccccc3)cc2)(c2ccccc2)c2ccccc2)cc1`: the TGI in assay [1], in [2], in [3], in [4], in assay [5] and in assay [6] was above 100 µM each time. Besides, the TGI is above 100 µM in assay [7]; 90.1 µM in [8]; above 100 µM in assay [9]; above 100 µM in [10]; above 100 µM in [11]; above 100 µM in assay [12]. The TGI was above 100 µM in assay [13]; 29.8 µM in assay [14]; above 100 µM in assay [15]; above 100 µM in assay [16]; above 100 µM in [17]; above 100 µM in assay [18]. In assay [19], this molecule displayed a TGI above 100 µM.

As to `Nc1ncnc2ccc(Sc3ccc4ncnc(N)c4c3)cc12`, the TGI in assay [1], in assay [2], in [3], in assay [4], in assay [5] and in assay [7] was above 100 µM each time. The TGI in assay [8], in assay [9], in assay [10], in assay [11], in assay [12] and in [14] was above 100 µM in each case. Further, the TGI in assay [15], in [16], in assay [17], in assay [18], in assay [20] and in assay [19] was above 100 µM in each case.

Regarding `O=C(CCC(NC(=O)OCc1ccccc1)C(=O)OCc1ccccc1)Nc1ccc(OCc2ccccc2)cc1` (centres undefined), the TGI is above 31.6 µM in [1]; above 100 µM in assay [2]; above 31.6 µM in assay [3]; above 31.6 µM in [4]; above 31.6 µM in assay [5]; above 100 µM in assay [6]. Besides, the TGI was 28.4 µM in assay [7]; above 10 µM in assay [8]; above 31.6 µM in assay [9]; above 31.6 µM in assay [10]; above 10 µM in [11]; above 31.6 µM in assay [12]. Further, the TGI in [14] is above 31.6 µM; in assay [15] it was above 31.6 µM; in assay [16] it was 26.3 µM; in [17], above 10 µM; in assay [18], above 31.6 µM; in [20], above 10 µM. This molecule showed a TGI in assay [19] above 31.6 µM.

In the case of `N#CCc1nc2ccccc2c(=O)[nH]1`, the TGI in assay [1], in [2], in [3], in assay [4], in assay [5] and in [7] was above 100 µM in each case. The TGI in assay [8], in [9], in assay [10], in assay [13], in [15] and in assay [16] was above 100 µM each time. Moreover, the TGI in assay [17], in [18] and in assay [19] was above 100 µM each time.

Turning to `COC(O)C(=O)c1c2c(cc3c1CC1(Cc4cc5c(cc4C1)CCC5)C3)CCC2` (centres undefined), the TGI in assay [1] was 31.6 µM; in assay [2] it was 31 µM; in assay [3] it was 26 µM; in assay [4], 33.7 µM; in assay [5], 50.4 µM; in [6], 36.1 µM. Also, the TGI in assay [7] was determined as 30.8 µM; in assay [8], 31.3 µM; in assay [9], 33.1 µM; in assay [10], 32.6 µM; in assay [11], 31.8 µM; in assay [12] it was 31.2 µM. Further, the TGI came to 36.2 µM in [14]; 35.5 µM in assay [15]; 39.8 µM in assay [16]; 35.8 µM in assay [17]; 31.8 µM in assay [18]; 33.9 µM in assay [19].

For `O=C1c2ccccc2S(=O)(=O)c2c1cccc2[N+](=O)[O-]`, the TGI is above 9.55 µM in assay [1]; 3.4 µM in assay [2]; 5.08 µM in assay [3]; above 10 µM in assay [4]; 5.9 µM in assay [5]; 3.09 µM in assay [6]. The TGI is above 9.02 µM in assay [7]; 2.46 µM in [8]; 4.76 µM in assay [9]; above 10 µM in [10]; above 8.45 µM in [11]; 3.02 µM in assay [12]. The TGI in assay [14] was above 10 µM; in [15] it was 3.47 µM; in assay [16], 2.95 µM; in assay [17] it was 3.92 µM; in assay [18] it was above 10 µM; in assay [20] it was above 8.34 µM. The TGI in assay [19] stood at 4.6 µM.

Consider `O=Nc1c(O)cc(Nc2ccc(Br)cc2)c2ccccc12`, for which the TGI was 3.03 µM in assay [2]; above 100 µM in [3]; 3.33 µM in assay [4]; above 73.8 µM in assay [5]; above 100 µM in assay [6]; above 100 µM in [7]. Moreover, the TGI in assay [8] was 3.15 µM; in [9], 3.33 µM; in [10] it was 6.04 µM; in assay [11] it was 22.2 µM; in assay [13], 3.41 µM; in [14], above 75 µM. The TGI in assay [15] is 35 µM; in [16] it was 15 µM; in assay [17], 23 µM; in [18], 30.8 µM; in [19] it was above 100 µM.

`NC(=O)N=C(N(Cc1ccccc1)Cc1ccccc1)N(Cc1ccccc1)Cc1ccccc1`: the TGI in assay [1] is 81.8 µM; in assay [3], above 100 µM; in [4], above 100 µM; in assay [5], above 100 µM; in assay [6], above 100 µM; in assay [7] it was above 100 µM. In addition, the TGI in assay [8], in assay [9], in [10], in [11], in [12] and in assay [14] was above 100 µM throughout. Besides, the TGI in [15] is above 100 µM; in [16] it was above 100 µM; in assay [17], above 100 µM; in assay [18] it was above 100 µM; in assay [20], above 100 µM; in [19], above 75.6 µM.

As for `Cc1nc2cccc(F)c2c(=O)n1C1CCCCNC1=O` (centres undefined), the TGI in assay [1], in assay [2], in assay [3], in assay [4], in assay [5] and in [6] was above 10 µM in each case. For the same molecule, the TGI in assay [7], in assay [8], in [9], in assay [10], in [13] and in assay [14] was above 10 µM each time. Moreover, the TGI in [15], in assay [16], in assay [17], in [18] and in assay [19] was above 10 µM in each case.

As to `CCN(CC)CCCNc1nc(=O)[nH]c(C)c1C(=O)Nc1cccc2cc3ccccc3cc12`, the TGI in assay [1], in assay [2], in assay [3], in assay [4], in [5] and in assay [6] was above 100 µM throughout. In addition, the TGI in [7], in assay [8], in assay [9], in [10], in assay [12] and in [13] was above 100 µM each time. The TGI in [14], in assay [15], in [16], in assay [17], in assay [18] and in [19] was above 100 µM each time.

Regarding `COc1ccc(/C=C2\NC(=S)N(CN3CCCCC3)C2=O)cc1`, the TGI in assay [1] was 79 µM; in [2] it was above 100 µM; in assay [3] it was above 100 µM; in [4], above 100 µM; in assay [6], above 100 µM; in assay [7], above 100 µM. Further, the TGI in [8], in assay [10], in assay [11], in assay [12], in assay [13] and in [14] was above 100 µM in each case. Further, the TGI is above 100 µM in assay [15]; above 100 µM in assay [16]; above 100 µM in assay [17]; above 100 µM in assay [18]; 78.8 µM in [19].

Regarding `O=C(CCCN1CCC2(CC1)OC(=O)N(c1ccccc1)C2=O)c1ccccc1`, the TGI in assay [1], in assay [2], in assay [3], in assay [4], in assay [5] and in [6] was above 100 µM in each case. Besides, the TGI in [7], in assay [8], in assay [9], in [10], in assay [11] and in assay [12] was above 100 µM throughout. In addition, the TGI in assay [13] is above 100 µM; in assay [14], above 100 µM; in [15], above 100 µM; in [16], above 100 µM; in assay [17], 46.3 µM; in [18], above 100 µM. This molecule also gave a TGI in assay [19] above 100 µM.

For `O=[N+]([O-])c1ccc(-c2nnc(C34CC5CC(CC(C5)C3)C4)o2)cc1`, the TGI in assay [1], in assay [2], in assay [3], in [4], in assay [5] and in assay [6] was above 100 µM in each case. Moreover, the TGI in assay [7], in [8], in [10], in assay [11], in [12] and in [13] was above 100 µM in each case. Also, the TGI in assay [14], in assay [15], in [16], in assay [17], in [18] and in assay [19] was above 100 µM each time.

Turning to `CCOC(CN=C=S)OCC`, the TGI in assay [1], in assay [2], in assay [3], in assay [4], in [5] and in assay [6] was above 10 µM in each case. The TGI in assay [7], in assay [8], in [9], in assay [10], in assay [11] and in assay [12] was above 10 µM throughout. Further, the TGI in assay [13], in assay [14], in assay [15], in assay [16], in assay [17] and in [18] was above 10 µM throughout. Besides, the TGI in assay [19] was above 10 µM.

Regarding `O=C(c1cccc2ccccc12)C1(Br)S(=O)(=O)OCCOS1(=O)=O`, the TGI in assay [2], in assay [4], in assay [8], in assay [9], in assay [10] and in assay [12] was above 100 µM each time. In addition, the TGI in [13], in assay [16], in [17], in assay [20] and in [19] was above 100 µM in each case.

On to `CCOC(=O)C(=[N+]=[N-])C(=O)C1(C(=O)OCC)CCN(C(=O)c2ccccc2)C1=O` (centres undefined), for which the TGI in [1], in [2], in assay [3], in assay [4], in assay [5] and in [6] was above 100 µM in each case. For the same molecule, the TGI in assay [7], in assay [8], in [9], in assay [10], in assay [11] and in assay [12] was above 100 µM throughout. Also, the TGI in [13], in [16], in assay [17], in [18] and in assay [19] was above 100 µM throughout.
